Among the data in patent US10077243B2, “Compounds for treating disorders mediated by metabotropic glutamate receptor 5, and methods of use thereof” (Sunovion Pharmaceuticals Inc., priority 2009, dated 2018) are EC50 values, retold here.

Each structure is given as a SMILES string.

T1 sequence (P41594 21-1212): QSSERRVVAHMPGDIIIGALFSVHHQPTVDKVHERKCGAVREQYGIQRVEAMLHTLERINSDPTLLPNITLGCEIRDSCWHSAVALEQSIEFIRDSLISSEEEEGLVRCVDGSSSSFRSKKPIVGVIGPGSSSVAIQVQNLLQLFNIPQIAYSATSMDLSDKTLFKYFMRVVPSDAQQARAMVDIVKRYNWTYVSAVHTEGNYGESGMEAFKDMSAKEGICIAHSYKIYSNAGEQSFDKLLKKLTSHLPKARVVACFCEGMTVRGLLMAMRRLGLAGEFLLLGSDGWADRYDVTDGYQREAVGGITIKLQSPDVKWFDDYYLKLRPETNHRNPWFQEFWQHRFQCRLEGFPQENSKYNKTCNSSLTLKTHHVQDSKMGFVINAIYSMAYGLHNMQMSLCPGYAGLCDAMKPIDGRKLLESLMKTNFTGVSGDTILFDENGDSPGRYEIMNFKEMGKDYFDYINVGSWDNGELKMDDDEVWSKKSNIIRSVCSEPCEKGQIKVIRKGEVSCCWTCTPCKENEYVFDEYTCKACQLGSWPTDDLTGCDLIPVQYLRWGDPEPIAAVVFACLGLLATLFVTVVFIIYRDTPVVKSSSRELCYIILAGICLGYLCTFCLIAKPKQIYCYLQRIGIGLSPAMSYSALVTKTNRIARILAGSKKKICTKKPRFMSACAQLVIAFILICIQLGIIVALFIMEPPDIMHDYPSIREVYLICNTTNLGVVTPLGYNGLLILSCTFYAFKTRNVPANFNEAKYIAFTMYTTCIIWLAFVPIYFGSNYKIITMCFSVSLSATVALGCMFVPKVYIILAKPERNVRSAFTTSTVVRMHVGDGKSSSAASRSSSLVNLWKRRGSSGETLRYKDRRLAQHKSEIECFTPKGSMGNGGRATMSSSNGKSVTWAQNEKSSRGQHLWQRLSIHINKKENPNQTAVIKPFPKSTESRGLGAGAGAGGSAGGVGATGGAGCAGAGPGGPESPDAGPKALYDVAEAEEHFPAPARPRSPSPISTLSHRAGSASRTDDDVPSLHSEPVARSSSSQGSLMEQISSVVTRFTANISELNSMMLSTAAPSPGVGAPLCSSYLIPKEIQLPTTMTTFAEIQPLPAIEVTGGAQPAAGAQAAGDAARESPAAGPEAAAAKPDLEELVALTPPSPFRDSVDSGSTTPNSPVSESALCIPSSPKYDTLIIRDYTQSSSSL

This assay addresses T1, human mGluR5 (Homo sapiens, UniProt P41594).
T1 construct: expressed in transfected cells; host or cells: HEK293 cells stably expressing rat GLAST (EAAT1), stably transfected with pcDNAzeo3.1 carrying synthetic human mGluR5 DNA; zeocin-selected single clones
Description: In vitro cell-based FLIPR calcium assay for positive modulation of the activation of mGluR5 by glutamate (PAM EC50). The settings on record: HEK293/GLAST cells expressing recombinant human mGluR5; FLIPR calcium signal; glutamate added at its EC20; read-out: mGluR5 PAM EC50. The gist of the method:
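HEK293/GLAST cells stably expressing mGluR5 were loaded with calcium-sensitive dye (25 °C, 45–60 min) in HBSS/20 mM HEPES. Test compounds were assayed in buffer containing glutamate at that day's EC20, with FLIPR fluorescence recorded. Controls contained 0.3% DMSO without compound.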
Regarding `O=c1c2ccc(C#Cc3ccccn3)cc2nc2n1CC1CC21` (stereo not shown) [Example 4.27, 4-(pyridin-2-ylethynyl)-9,9a-dihydro-1H-cyclopropa[3,4]pyrrolo[2,1-b]quinazolin-7(1aH)-one], the EC50 was 30 to 100 nM. Under `C=C1CCc2nc3cc(C#Cc4cccc(F)c4)ccc3c(=O)n2C1` [Example 4.28, 3-((3-fluorophenyl)ethynyl)-8-methylene-8,9-dihydro-6H-pyrido[2,1-b]quinazolin-11(7H)-one] stands 10 to 30 nM; under `CN(C)C1CCc2nc3cc(C#Cc4cccc(F)c4)ccc3c(=O)n2C1` (stereo not shown) [Example 4.30, 8-(dimethylamino)-3-((3-fluorophenyl)ethynyl)-8,9-dihydro-6H-pyrido[2,1-b]quinazolin-11(7H)-one], 100 to 300 nM. Under `O=c1c2ccc(C#Cc3cccc(F)c3)cc2nc2n1CC(CO)CC2` (stereo not shown) [Example 4.31, 3-((3-fluorophenyl)ethynyl)-8-(hydroxymethyl)-8,9-dihydro-6H-pyrido[2,1-b]quinazolin-11(7H)-one] stands < 10 nM. Under `O=c1c2ccc(C#Cc3ccccn3)cc2nc2n1CC(CO)CC2` (stereo not shown) [Example 4.32, 8-(hydroxymethyl)-3-(pyridin-2-ylethynyl)-8,9-dihydro-6H-pyrido[2,1-b]quinazolin-11(7H)-one] stands 100 to 300 nM. For the molecule `COCC1CCc2nc3cc(C#Cc4cccc(F)c4)ccc3c(=O)n2C1` (stereo not shown) [Example 4.33, 3-((3-fluorophenyl)ethynyl)-8-(methoxymethyl)-8,9-dihydro-6H-pyrido[2,1-b]quinazolin-11(7H)-one], the EC50 was < 10 nM. Under `COCC1CCc2nc3cc(C#Cc4ccccn4)ccc3c(=O)n2C1` (stereo not shown) [Example 4.34, 8-(methoxymethyl)-3-(pyridin-2-ylethynyl)-8,9-dihydro-6H-pyrido[2,1-b]quinazolin-11(7H)-one] stands 10 to 30 nM.

With `CN(C)CC1CCc2nc3cc(C#Cc4cccc(F)c4)ccc3c(=O)n2C1` (stereo not shown) [Example 4.36, 8-((dimethylamino)methyl)-3-((3-fluorophenyl)ethynyl)-8,9-dihydro-6H-pyrido[2,1-b]quinazolin-11(7H)-one], the EC50 was in the range of 300 to 1000 nM. Turning to `O=c1c2ccc(C#Cc3ccccn3)cc2nc2n1CCC(CO)C2` (stereo not shown) [Example 4.37, 7-(hydroxymethyl)-3-(pyridin-2-ylethynyl)-8,9-dihydro-6H-pyrido[2,1-b]quinazolin-11(7H)-one], the EC50 was in the range of 30 to 100 nM. Next, `CC1(C)Cn2c(nc3cc(C#Cc4ccccn4)ccc3c2=O)CO1` [Example 4.40, 3,3-dimethyl-9-(pyridin-2-ylethynyl)-3,4-dihydro-[1,4]oxazino[3,4-b]quinazolin-6(1H)-one]: 10 to 30 nM; `O=c1c2ccc(C#Cc3ccccn3)cc2nc2n1CC(F)(F)CC2` [Example 4.42, 8,8-difluoro-3-(pyridin-2-ylethynyl)-8,9-dihydro-6H-pyrido[2,1-b]quinazolin-11(7H)-one]: 10 to 30 nM.

As for `O=c1c2ccc(C#Cc3ccccn3)cc2nc2n1CCC1CC21` (stereo not shown) [Example 4.43, 8-(pyridin-2-ylethynyl)-1,2,3,10b-tetrahydrocyclopropa[3,4]pyrido[2,1-b]quinazolin-5(1aH)-one], the 50% effective concentration (EC50) is 10 to 30 nM. Take `CC1(C)Cn2c(nc3cc(C#Cc4ccccn4)ccc3c2=O)C(F)(F)C1` [Example 4.44, 6,6-difluoro-8,8-dimethyl-3-(pyridin-2-ylethynyl)-8,9-dihydro-6H-pyrido[2,1-b]quinazolin-11(7H)-one]: the EC50 was < 10 nM. Under `CC1(O)CCc2nc3cc(C#Cc4ccccn4)ccc3c(=O)n2C1` (stereo not shown) [Example 4.45, 8-hydroxy-8-methyl-3-(pyridin-2-ylethynyl)-8,9-dihydro-6H-pyrido[2,1-b]quinazolin-11(7H)-one] stands 100 to 300 nM; under `COC1(C)CCc2nc3cc(C#Cc4ccccn4)ccc3c(=O)n2C1` (stereo not shown) [Example 4.46, 8-methoxy-8-methyl-3-(pyridin-2-ylethynyl)-8,9-dihydro-6H-pyrido[2,1-b]quinazolin-11(7H)-one], 10 to 30 nM; under `CC1(C)CC(F)c2nc3cc(C#Cc4ccccn4)ccc3c(=O)n2C1` (stereo not shown) [Example 4.47, 6-fluoro-8,8-dimethyl-3-(pyridin-2-ylethynyl)-8,9-dihydro-6H-pyrido[2,1-b]quinazolin-11(7H)-one], < 10 nM.

Turning to `O=c1c2ccc(C#Cc3ccccn3)cc2nc2n1C1CCC2CC1` [Example 4.48, 3-(pyridin-2-ylethynyl)-8,9-dihydro-6H-6,9-ethanopyrido[2,1-b]quinazolin-11(7H)-one], the EC50 was < 10 nM. Next, `CC12CCCN1Cc1nc3cc(C#Cc4ccccn4)ccc3c(=O)n1C2` (stereo not shown) [Example 4.49, 13a-methyl-8-(pyridin-2-ylethynyl)-2,3,13,13a-tetrahydro-1H-pyrrolo[1′,2′:4,5]pyrazino[2,1-b]quinazolin-11 (5H)-one]: 30 to 100 nM; `CN1CCn2c(nc3cc(C#Cc4ccc(F)cc4)ccc3c2=O)C1` [Example 5.3, 9-((4-fluorophenyl)ethynyl)-2-methyl-3,4-dihydro-1H-pyrazino[2,1-b]quinazolin-6(2H)-one]: 10 to 30 nM; `CN1CCn2c(nc3cc(C#Cc4cccc(F)c4)ccc3c2=O)C1` [Example 5.4, 9-((3-fluorophenyl)ethynyl)-2-methyl-3,4-dihydro-1H-pyrazino[2,1-b]quinazolin-6(2H)-one]: < 10 nM. Next, `CN1CCn2c(nc3cc(C#Cc4ccccn4)ccc3c2=O)C1` [Example 5.5, 2-methyl-9-(pyridin-2-ylethynyl)-3,4-dihydro-1H-pyrazino[2,1-b]quinazolin-6(2H)-one]: 100 to 300 nM; `CCC(C)N1CCn2c(nc3cc(C#Cc4cccc(F)c4)ccc3c2=O)C1` (stereo not shown) [Example 5.6, 2-(sec-butyl)-9-((3-fluorophenyl)ethynyl)-3,4-dihydro-1H-pyrazino[2,1-b]quinazolin-6(2H)-one]: 100 to 300 nM; `O=c1c2ccc(C#Cc3cccc(F)c3)cc2nc2n1CCN(CCO)C2` [Example 5.8, 9-((3-fluorophenyl)ethynyl)-2-(2-hydroxyethyl)-3,4-dihydro-1H-pyrazino[2,1-b]quinazolin-6(2H)-one]: 30 to 100 nM.

In the case of `COCCN1CCn2c(nc3cc(C#Cc4cccc(F)c4)ccc3c2=O)C1` [Example 5.9, 9-((3-fluorophenyl)ethynyl)-2-(2-methoxyethyl)-3,4-dihydro-1H-pyrazino[2,1-b]quinazolin-6(2H)-one], the EC50 fell in the range of 100 to 300 nM. Under `O=c1c2ccc(C#Cc3cccc(F)c3)cc2nc2n1CCN(Cc1ccccc1)C2` [Example 5.10, 2-benzyl-9-((3-fluorophenyl)ethynyl)-3,4-dihydro-1H-pyrazino[2,1-b]quinazolin-6(2H)-one] stands 300 to 1000 nM; under `CCCCN1CCn2c(nc3cc(C#Cc4cccc(F)c4)ccc3c2=O)C1` [Example 5.11, 2-butyl-9-((3-fluorophenyl)ethynyl)-3,4-dihydro-1H-pyrazino[2,1-b]quinazolin-6(2H)-one], 100 to 300 nM. Regarding `CC1Cn2c(nc3cc(C#Cc4ccccn4)ccc3c2=O)CN1C` (stereo not shown) [Example 5.14, 2,3-dimethyl-9-(pyridin-2-ylethynyl)-3,4-dihydro-1H-pyrazino[2,1-b]quinazolin-6(2H)-one], the EC50 lay in the range of 30 to 100 nM.

With `CC1CN(C)Cc2nc3cc(C#Cc4ccccn4)ccc3c(=O)n21` (stereo not shown) [Example 5.15, 2,4-dimethyl-9-(pyridin-2-ylethynyl)-3,4-dihydro-1H-pyrazino[2,1-b]quinazolin-6(2H)-one], the EC50 lay in the range of 30 to 100 nM.

As usually defined, the EC50 is the concentration that produces a half-maximal response.
